The values below come from article PMC5591244, “Novel selective, potent naphthyl TRPM8 antagonists identified through a combined ligand- and structure-based virtual screening approach” (Scientific Reports, 2017).

The structures appear in SMILES notation. “Also recorded” adds a separate entry of the source.

Assay type in all cases: cell-based
One test addresses TRPV4 (Homo sapiens, UniProt Q9HBA0). Put plainly: Selectivity calcium mobilization assay, TRPV4. The following applies: agonist 20 nM GSK1016790A. On the procedure: For calcium mobilization assays, cells were seeded at 10,000 cells/well in 384-well plates coated with poly-D-lysine (MATRIX black/clear bottom #4332-CPL, Thermo Scientific, Waltham, MA, USA) in complete medium.Twenty-four hours after seeding, the plates were washed with Tyrode’s buffer with a Bio-Tek-ELx405 Microplate Washer (Merck Millipore; Billerica, MA, USA), and then 10 µl/well of a solution containing the fluorescent Ca^2+ indicator Fluo-4 NW dye was added. Cells were incubated for 1 h at room temperature before test compounds were added at 3X the concentration with respect to the final wanted concentration to be tested with a FLIPR TETRA system (Molecular Devices, Sunnyvale, CA, USA). Calcium mobilization was monitored over a period of 5 min. A second injection of 10 µl/well of a reference agonist (icilin or Cooling agent 10) at 4X concentration in assay buffer was performed using the FLIPR TETRA system. Of note, for selectivity assays, the following agonists were used: 10 μM AITC (allyl isothiocyanate) for TRPA1; 100 nM Capsaicin for TRPV1; and 20 nM GSK1016790A for TRPV4.
For orientation: Calcium flux is commonly read through the fluorescence of an indicator in the cells.

The target in another test is T1, TRPM8 D802A (Homo sapiens, UniProt Q7Z2W7, D802A).
T1 construct: expressed in transfected cells; host or cells: HEK-293, transient (Lipofectamine 2000)
T1 sequence (Q7Z2W7 whole entry D802A): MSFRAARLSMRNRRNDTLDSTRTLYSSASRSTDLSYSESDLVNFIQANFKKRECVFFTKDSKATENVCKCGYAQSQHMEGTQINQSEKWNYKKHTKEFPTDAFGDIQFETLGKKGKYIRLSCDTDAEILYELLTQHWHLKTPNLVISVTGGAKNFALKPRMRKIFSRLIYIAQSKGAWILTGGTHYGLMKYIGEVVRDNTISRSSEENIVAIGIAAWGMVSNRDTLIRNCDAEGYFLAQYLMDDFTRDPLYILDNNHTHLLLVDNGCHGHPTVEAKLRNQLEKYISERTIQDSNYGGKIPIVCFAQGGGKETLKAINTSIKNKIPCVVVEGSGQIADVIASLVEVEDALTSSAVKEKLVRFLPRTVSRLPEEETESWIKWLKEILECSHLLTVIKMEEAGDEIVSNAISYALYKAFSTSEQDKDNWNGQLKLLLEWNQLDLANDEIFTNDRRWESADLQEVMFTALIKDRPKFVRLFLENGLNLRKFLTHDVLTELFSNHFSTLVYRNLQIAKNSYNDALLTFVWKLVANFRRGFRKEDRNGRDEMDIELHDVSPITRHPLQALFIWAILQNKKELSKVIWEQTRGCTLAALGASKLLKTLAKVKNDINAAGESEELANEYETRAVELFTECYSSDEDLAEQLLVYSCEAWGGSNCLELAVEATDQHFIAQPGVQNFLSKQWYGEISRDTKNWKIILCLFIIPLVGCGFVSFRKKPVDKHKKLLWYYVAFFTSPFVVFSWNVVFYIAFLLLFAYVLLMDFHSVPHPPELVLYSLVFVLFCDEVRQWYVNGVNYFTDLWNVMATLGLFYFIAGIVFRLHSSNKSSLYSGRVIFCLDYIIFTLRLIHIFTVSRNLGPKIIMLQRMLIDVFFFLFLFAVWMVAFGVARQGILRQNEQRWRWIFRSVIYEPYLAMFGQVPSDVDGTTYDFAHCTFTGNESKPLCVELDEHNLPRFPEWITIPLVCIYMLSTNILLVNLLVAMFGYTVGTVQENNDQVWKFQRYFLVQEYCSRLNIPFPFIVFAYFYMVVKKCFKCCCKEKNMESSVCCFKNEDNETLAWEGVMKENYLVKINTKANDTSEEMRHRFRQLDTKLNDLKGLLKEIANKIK
The test can be described thus: Calcium mobilization on transiently transfected TRPM8 D802A mutant. The following applies: Cooling agent 10 at EC80, D802A; read-out: pIC50, inhibition of Cooling agent 10 activation, D802A (converted). An excerpt: Single point mutations were introduced in the hTRPM8-coding sequence, and the mutated TRPM8 was cloned as N-terminal c-myc tagged version into the pcDNA3 expression vector. This was done in that way that the single variations could be easily swapped from the myc-tagged expression construct into the non-tagged TRPM8 wild type expression construct.
The list of the variants is the following: variant 1, t2233g, a2234c (=Y745A); variant 2, a2236g, t2237c (=I746A); variant 3, a2395g, a2396c (=N799A) and variant 4, a2405c (D802A). The cloning project comprised three steps. First of all, a unique XhoI restriction site was inserted by site-directed mutagenesis (SDM) using DNA of the pcDNA3_TRPM8 construct as template. The 0.6 kb DNA fragment between the unique 5′ XhoI (introduced) and 3′ BamHI (already present) restriction sites comprised all positions of the four single point mutations and could be later used for their insertion as well as swapping between myc-tagged and non-tagged TRPM8 versions. In a second step, the c-myc tag sequence was introduced embedded within the TRPM8 coding sequence by PCR primers in two partially overlapping PCRs that were then joined by bridge PCR with the external 5′KpnI and internal 3′EcoRI primers and in the last step the point mutations 1 to 4 were inserted into pcDNA3_c-myc-TRPM8 by exchanging the wild type 5′XhoI-3′BamHI fragment (0.6 kb) with each of the corresponding variation fragment derived from synthetic DNA (provided by GeneArt, ThermoFisher Scientific).The myc-tagged constructs were transiently transfected in HEK-293 cells with Lipofectamine 2000 (Invitrogen) according to the manufacturer’s protocol. The pcDNA vectors containing the wt myc-tagged TRPM8 gene and the empty pcDNA3 (mock) were separately transfected into HEK-293 cells as controls. […] The obtained data from at least four wells (as replicates) were analyzed with GraphPad PRISM® software (version 5, GraphPad Software Inc.) to calculate the mean and standard error of the mean[58], to create sigmoidal concentration-response curves and to calculate IC50 values.

Another test concerns TRPV3. Put plainly: Selectivity, TRPV3 as named in the discussion.
The target in the next test is T2, TRPM8 (Homo sapiens, UniProt Q7Z2W7).
T2 construct: expressed in transfected cells
T2 sequence (Q7Z2W7 whole entry): as the sequence (Q7Z2W7 whole entry D802A) above, with A802D counted along it
Put plainly: Manual patch clamp (whole-cell voltage clamp). The following applies: Cooling agent 10 50 μM, +40 mV, compound 1 300 nM. On the procedure: Sixteen hours before an experiment, cells were seeded onto poly-D-lysine-coated glass slides (150,000 cells each) and placed in 6-well plates in antibiotic-free medium. Immediately before experiments, the coated glass slides with seeded cells were washed five times with patch-clamp extracellular solution (145 mM NaCl, 10 mM EGTA, 10 mM HEPES, 10 mM Glucose, pH 7.4 with NaOH) and then placed into the recording chamber.
The electrophysiology study involved a whole-cell voltage clamp and intracellular solution consisting of 128 mM CsCl, 10 mM EGTA, 0.7 mM CaCl2, 3 mM MgCl2, 10 mM HEPES, and 5 mM Na2ATP at pH 7.2 with CsOH. For the pulse protocols, cells were held at +40 mV, and outward currents were acquired in uninterrupted recording mode. Data were recorded in standard whole-cell voltage experiments performed at room temperature. For data acquisition and further analysis, an EPC10 digitally controlled amplifier was utilized in combination with PATCHMASTER software (HEKA Electronics, Lambrect, Germany). The EPC10 provides automatic subtraction of capacitive currents by means of the prepulse. The data were filtered at 2.9 KHz (−3 dB, 4-pole Bessel lowpass) and digitized at 100 µs per point. […] Outward currents elicited by the addition of 50 μM cooling agent 10 or of cooling agent 10 (50 μM) plus compound 1 (300 nM) were recorded.

Chain of TRPV4 (Q9HBA0 whole entry, species assumed): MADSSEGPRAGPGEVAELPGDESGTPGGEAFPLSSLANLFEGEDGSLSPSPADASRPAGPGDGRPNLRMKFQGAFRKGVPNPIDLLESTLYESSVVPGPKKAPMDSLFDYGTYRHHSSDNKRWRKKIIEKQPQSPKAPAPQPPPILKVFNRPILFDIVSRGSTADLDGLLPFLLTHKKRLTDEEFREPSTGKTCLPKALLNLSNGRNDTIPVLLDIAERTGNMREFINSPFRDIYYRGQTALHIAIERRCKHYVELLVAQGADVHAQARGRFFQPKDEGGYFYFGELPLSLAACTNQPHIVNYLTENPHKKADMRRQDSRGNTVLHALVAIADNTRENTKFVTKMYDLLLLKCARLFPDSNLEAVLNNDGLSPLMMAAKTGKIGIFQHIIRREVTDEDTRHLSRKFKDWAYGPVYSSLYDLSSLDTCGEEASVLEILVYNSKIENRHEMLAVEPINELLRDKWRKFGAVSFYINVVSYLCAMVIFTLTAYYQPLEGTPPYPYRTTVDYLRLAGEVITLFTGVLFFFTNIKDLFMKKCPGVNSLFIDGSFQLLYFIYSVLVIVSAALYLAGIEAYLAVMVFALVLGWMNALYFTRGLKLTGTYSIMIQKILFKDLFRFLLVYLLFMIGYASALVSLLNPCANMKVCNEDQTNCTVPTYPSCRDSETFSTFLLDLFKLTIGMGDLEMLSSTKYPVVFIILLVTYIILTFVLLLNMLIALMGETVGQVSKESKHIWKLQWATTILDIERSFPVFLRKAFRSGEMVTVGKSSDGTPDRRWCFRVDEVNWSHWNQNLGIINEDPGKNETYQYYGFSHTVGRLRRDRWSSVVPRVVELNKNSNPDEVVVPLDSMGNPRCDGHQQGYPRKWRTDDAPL

For `Clc1c(OCCNCc2ccco2)ccc2ccccc12` [Compound 1], the “Activity on TRPV4” value at TRPV4 is “completely inactive”. For the same molecule, the IC50 at TRPM8 D802A was 3.16 µM. Besides, the “Effect on inhibition of TRPV3” value in the test on TRPV3 is “didn’t have any effect”. Besides, on TRPM8, the “Effect on outward current” value is “completely abrogated electrical impulse transmission; also recorded: almost completely blocked”.
